Patent US9932637B2, “Genetic polymorphisms associated with cardiovascular disorders and drug response, methods of detection and uses thereof” (CELERA CORPORATION, priority 2003, dated 2018)

Legend:
[1] = system: patients with prior myocardial infarction (CARE study); assay: CARE: risk of cardiovascular disease events associated with pravastatin by CD6 or FCAR genotype (Tables 11, 12); type: in vivo, human; settings: for RR (relative risk) of RMI associated with Pravastatin: recurrent MI during 5 years follow up; for OR of RMI associated with Pravastatin, Adjusted for Age, Smoking status, Gender / OR of RMI associated with Pravastatin, Adjusted for Age, Smoking status, Gender, hypertension, BMI, diabetes, baseline LDLD and HDL / OR of RMI associated with Pravastatin, Unadjusted: placebo group as reference
Excerpt: In order to identify genetic markers associated with acute coronary events (e.g. MI, stroke, unstable angina, congestive heart failure, etc.) or response to statin treatment for the prevention of coronary events, samples from the Cholesterol and Recurrent Events (CARE) study (a randomized multicentral double-blinded trial on secondary prevention of acute coronary events with pravastatin) (Sacks et al., 1991, Am. J. Cardiol. 68: 1436-1446) were genotyped. A well-documented myocardial infarction (MI) was one of the enrollment criteria for entry into the CARE study. Patients were enrolled in the CARE trial from 80 participating study centers. […] Patients were randomized to receive either 40 mg of pravastatin once daily or a matching placebo. The primary endpoint of the trial was death from coronary heart disease and the median duration of follow-up was 5.0 years (range, 4.0 to 6.2 years). […] Secondary endpoints of other related cardiovascular or metabolic disease events, and changes in clinical variables were also recorded in pravastatin-treated and placebo groups. All individuals included in the study had signed a written informed consent form and the study protocol was approved by the respective Institutional Review Boards (IRBs).
In both studies the individuals homozygous for the minor allele were statistically different from heterozygous and major allele homozygous individuals in the pravastatin treated group vs. the placebo treated group. This SNP was associated with a reduced risk of an adverse coronary event in the CARE and WOSCOPS studies with RR or OR of 0.13 and 0.23 respectively in the two studies. Therefore, SNPs identified as useful for predicting RMI may also be useful for predicting increased risk for developing primary MI.
Therefore, an allele found to be associated with risk for MI, RMI, stroke, or other adverse cardiovascular event, may also be useful for predicting responsiveness to statin treatment. SNPs associated with treatment response to pravastatin may also be predictive of responsiveness of an individual to other statins as a class.

[2] = system: animal models and myocyte cultures; settings: compared to other hydrophobic statins; cited from earlier work
[3] = FCAR hCV7841642 genotype AA + AG

CC[C@H](C)C(=O)O[C@H]1C[C@H](O)C=C2C=C[C@H](C)[C@H](CC[C@@H](O)C[C@@H](O)CC(=O)O)[C@H]21 [pravastatin]
RR or OR of adverse coronary event, pravastatin vs placebo ([1]; CD6 hCV2553030, homozygous for the minor allele): 0.13
RR (relative risk) of RMI associated with Pravastatin ([1]; CD6 hCV2553030 genotype Het (TC)): 0.76
RR (relative risk) of RMI associated with Pravastatin ([1]; CD6 hCV2553030 genotype Major hom (CC)): 0.8
RR (relative risk) of RMI associated with Pravastatin ([1]; CD6 hCV2553030 genotype Minor hom (TT)): 0.13
RR (relative risk) of RMI associated with Pravastatin ([1]; CD6 hCV2553030 recessive (TT + CC)ref): 0.78
RR (relative risk) of RMI associated with Pravastatin ([1]; CD6 hCV2553030 recessive (TT)): 0.13
OR of RMI associated with Pravastatin, Adjusted for Age, Smoking status, Gender [1, 3]: 0.31
OR of RMI associated with Pravastatin, Adjusted for Age, Smoking status, Gender, hypertension, BMI, diabetes, baseline LDLD and HDL [1, 3]: 0.31
OR of RMI associated with Pravastatin, Unadjusted [1, 3]: 0.32
OR of RMI associated with Pravastatin, Adjusted for Age, Smoking status, Gender ([1]; FCAR hCV7841642 genotype GG): 0.79
OR of RMI associated with Pravastatin, Adjusted for Age, Smoking status, Gender, hypertension, BMI, diabetes, baseline LDLD and HDL ([1]; FCAR hCV7841642 genotype GG): 0.79
OR of RMI associated with Pravastatin, Unadjusted ([1]; FCAR hCV7841642 genotype GG): 0.81
myopathic potential [2]: low myopathic potential
